According to patent US11696913B2, “Prolonged ectoparasite-controlling agent for animal” (MITSUI CHEMICALS AGRO, INC., priority 2017, dated 2023):
Read-outs that look alike come from different tables or passages of the source.

What was measured:
Rhipicephalus sanguineus = assay: In vitro contact test with adult hard ticks (Rhipicephalus sanguineus); settings: read-out: acaricidal activity; for pest or weed control at 0.04 µg/cm2, 0.04 µg/cm2: dose 0.04 μg/cm^2, 48 h; for pest or weed control at 0.2 µg/cm2, 0.2 µg/cm2: dose 0.2 μg/cm^2, 48 h; for pest or weed control at 1 µg/cm2, 1 µg/cm2: dose 1 μg/cm^2, 48 h
How it was run: (§1)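 Adult R. sanguineus, I. ricinus, D. variabilis or A. americanum nymphs exposed in glass vials coated with compound from acetone (900 ppm gives 5 μg/cm^2). Held 48 h at room temperature (R. sanguineus) or 21° C., 85% rel. hum.; then heated at 45-50° C. ≤5 min, motionless or uncoordinated ticks scored dead/moribund.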

Amblyomma americanum = assay: In vitro contact test with hard ticks (Amblyomma americanum nymphs); settings: read-out: acaricidal activity; for pest or weed control at 0.2 µg/cm2, 0.2 µg/cm2: dose 0.2 μg/cm^2, 48 h; for pest or weed control at 1 µg/cm2, 1 µg/cm2: dose 1 μg/cm^2, 48 h
How it was run: as §1

Ixodes ricinus = assay: In vitro contact test with adult hard ticks (Ixodes ricinus); settings: read-out: acaricidal activity; for pest or weed control at 5 µg/cm2, 5 µg/cm2: dose 5 μg/cm^2, 48 h
How it was run: as §1

Laodelphax striatellus = assay: Insecticidal testing against small brown planthopper; format: in vivo; settings: 144 h, concentration 100 ppm, sprayed rice seedlings, after 6 days, read-out: pesticidal rate
How it was run: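 Acetone solution of compound at a set concentration sprayed onto rice seedlings, air-dried, then exposed to 10 planthoppers (one group). Held at 25° C; survival rate recorded after 6 days.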

Dermacentor variabilis = assay: Systemic treatment in-vivo test with American dog tick nymph on rats; settings: Dermacentor variabilis, ip, intraperitoneal injection
Experimental: Systemic Treatment In-Vivo Test with American Dog Tick Nymph and Cat Flea on Rats
Type of study and overall study design: The method is a randomized non-blinded efficacy study in accordance with European animal welfare requirements. Rats (Rattus norvegicus) were randomized based on pre-treatment flea counts. The efficacy of treatment was determined by comparison of the flea and tick counts of different treatment groups versus the placebo-treated control group. The experimental unit was the individual study animal. Method and route of administration: The compound was applied in a suitable solvent and carrier (more specifically, added to glycerol formal; in case of poorly soluble compounds, a solvent mixture with up to 25% by volume of N-methyl pyrrolidone may be used.) considering the individual body weight as an intraperitoneal injection.
Experimental infestation: On the day of treatment and weekly thereafter, 30 ticks (D. variabilis nymphs) were released onto the back of each rat, and 30 fleas (C. felis) were released onto the back of each rat 24 h later.
Tick and Flea counting: Rats were thoroughly examined and ticks and fleas were manually removed 48 h (±4 h) after tick infestation and 24 h after flea infestation. Live fleas and live attached engorged ticks were counted. In non-evident cases, engorgement status was evaluated by squeezing the tick on a filter paper to find traces of blood as sign for engorgement.

[1] = SD 2, read-out: Geometric mean percent reduction in live tick (Dermacentor variabilis) counts compared to untreated control rats
[2] = SD 9, read-out: Geometric mean percent reduction in live tick (Dermacentor variabilis) counts compared to untreated control rats
[3] = SD 16, read-out: Geometric mean percent reduction in live tick (Dermacentor variabilis) counts compared to untreated control rats
[4] = SD 23, read-out: Geometric mean percent reduction in live tick (Dermacentor variabilis) counts compared to untreated control rats
[5] = SD 30, read-out: Geometric mean percent reduction in live tick (Dermacentor variabilis) counts compared to untreated control rats

CN(C(=O)c1ccc(F)cc1)c1cccc(C(=O)Nc2c(I)cc(C(F)(C(F)(F)F)C(F)(F)F)cc2OC(F)(F)F)c1F [Compound 74]
pest or weed control at 0.04 µg/cm2, 0.04 µg/cm2 (Rhipicephalus sanguineus): 90% | pest or weed control at 0.2 µg/cm2, 0.2 µg/cm2 (Rhipicephalus sanguineus): 90% | pest or weed control at 1 µg/cm2, 1 µg/cm2 (Rhipicephalus sanguineus): 90% | pest or weed control at 0.2 µg/cm2, 0.2 µg/cm2 (Amblyomma americanum): 90% | pest or weed control at 1 µg/cm2, 1 µg/cm2 (Amblyomma americanum): 90% | pest or weed control at 1 µg/cm2, 1 µg/cm2 (Ixodes ricinus; dose 1 μg/cm^2, 48 h): 90% | pest or weed control at 5 µg/cm2, 5 µg/cm2 (Ixodes ricinus): 90% | pest or weed control at 100 ppm (Laodelphax striatellus): ≥ 70% | inhibition in vivo at 10 mg/kg (Dermacentor variabilis; [1]): 100% | inhibition in vivo at 10 mg/kg (Dermacentor variabilis; [2]): 100% | inhibition in vivo at 10 mg/kg (Dermacentor variabilis; [3]): 90% | inhibition in vivo at 10 mg/kg (Dermacentor variabilis; [4]): 89% | inhibition in vivo at 10 mg/kg (Dermacentor variabilis; [5]): 78%

CN(C(=O)c1ccc(C(F)(F)F)nc1)c1cccc(C(=O)Nc2c(I)cc(C(F)(C(F)(F)F)C(F)(F)F)cc2C(F)(F)F)c1F [Compound 66, N-(2-fluoro-3-((2-iodo-4-(perfluoropropan-2-yl)-6-(trifluoromethyl)phenyl)carbamoyl)phenyl)-N-methyl-6-(trifluoromethyl)nicotinamide]
pest or weed control at 0.2 µg/cm2, 0.2 µg/cm2 (Rhipicephalus sanguineus): 90% | pest or weed control at 1 µg/cm2, 1 µg/cm2 (Rhipicephalus sanguineus): 90% | pest or weed control at 100 ppm (Laodelphax striatellus): ≥ 70% | inhibition in vivo at 10 mg/kg (Dermacentor variabilis; [1]): 100% | inhibition in vivo at 10 mg/kg (Dermacentor variabilis; [2]): 100% | inhibition in vivo at 10 mg/kg (Dermacentor variabilis; [3]): 100% | inhibition in vivo at 10 mg/kg (Dermacentor variabilis; [4]): 100% | inhibition in vivo at 10 mg/kg (Dermacentor variabilis; [5]): 95%

CN(C(=O)c1ccc(C(F)(F)F)nc1)c1cccc(C(=O)Nc2c(I)cc(C(F)(C(F)(F)F)C(F)(F)C(F)(F)F)cc2C(F)(F)F)c1F (centres unmarked) [Compound 119]
pest or weed control at 1 µg/cm2, 1 µg/cm2 (Amblyomma americanum): 90% | pest or weed control at 100 ppm (Laodelphax striatellus): ≥ 70% | inhibition in vivo at 2 mg/kg (Dermacentor variabilis; [1]): 100% | inhibition in vivo at 2 mg/kg (Dermacentor variabilis; [2]): 96% | inhibition in vivo at 2 mg/kg (Dermacentor variabilis; [3]): 63% | inhibition in vivo at 2 mg/kg (Dermacentor variabilis; [4]): 1% | inhibition in vivo at 2 mg/kg (Dermacentor variabilis; [5]): 61% | inhibition in vivo at 10 mg/kg (Dermacentor variabilis; [1]): 100% | inhibition in vivo at 10 mg/kg (Dermacentor variabilis; [2]): 100% | inhibition in vivo at 10 mg/kg (Dermacentor variabilis; [3]): 100% | inhibition in vivo at 10 mg/kg (Dermacentor variabilis; [4]): 89% | inhibition in vivo at 10 mg/kg (Dermacentor variabilis; [5]): 61%

CN(C(=O)c1ccc(F)nc1)c1cccc(C(=O)Nc2c(I)cc(C(F)(C(F)(F)F)C(F)(F)F)cc2C(F)(F)F)c1F [Compound 115, 6-fluoro-N-(2-fluoro-3-((2-iodo-4-(perfluoropropan-2-yl)-6-(trifluoromethyl)phenyl)carbamoyl)phenyl)-N-methylnicotinamide]
pest or weed control at 0.04 µg/cm2, 0.04 µg/cm2 (Rhipicephalus sanguineus): 90% | pest or weed control at 0.2 µg/cm2, 0.2 µg/cm2 (Rhipicephalus sanguineus): 90% | pest or weed control at 1 µg/cm2, 1 µg/cm2 (Rhipicephalus sanguineus): 90% | pest or weed control at 0.2 µg/cm2, 0.2 µg/cm2 (Amblyomma americanum): 90% | pest or weed control at 1 µg/cm2, 1 µg/cm2 (Amblyomma americanum): 90% | pest or weed control at 5 µg/cm2, 5 µg/cm2 (Ixodes ricinus): 90% | pest or weed control at 100 ppm (Laodelphax striatellus): ≥ 70% | inhibition in vivo at 10 mg/kg (Dermacentor variabilis; [1]): 100% | inhibition in vivo at 10 mg/kg (Dermacentor variabilis; [2]): 99% | inhibition in vivo at 10 mg/kg (Dermacentor variabilis; [3]): 86% | inhibition in vivo at 10 mg/kg (Dermacentor variabilis; [4]): 46% | inhibition in vivo at 10 mg/kg (Dermacentor variabilis; [5]): 17%

CN(C(=O)c1ccc(F)cc1)c1cccc(C(=O)Nc2c(I)cc(C(F)(C(F)(F)F)C(F)(F)C(F)(F)F)cc2C(F)(F)F)c1F (centres unmarked) [Compound 37]
pest or weed control at 0.2 µg/cm2, 0.2 µg/cm2 (Rhipicephalus sanguineus): 90% | pest or weed control at 1 µg/cm2, 1 µg/cm2 (Rhipicephalus sanguineus): 90% | pest or weed control at 0.2 µg/cm2, 0.2 µg/cm2 (Amblyomma americanum): 90% | pest or weed control at 1 µg/cm2, 1 µg/cm2 (Amblyomma americanum): 90% | inhibition in vivo at 10 mg/kg (Dermacentor variabilis; [1]): 100% | inhibition in vivo at 10 mg/kg (Dermacentor variabilis; [2]): 100% | inhibition in vivo at 10 mg/kg (Dermacentor variabilis; [3]): 99% | inhibition in vivo at 10 mg/kg (Dermacentor variabilis; [4]): 99% | inhibition in vivo at 10 mg/kg (Dermacentor variabilis; [5]): 80%

CN(C(=O)c1ccc(F)cc1)c1cccc(C(=O)Nc2c(I)cc(C(F)(C(F)(F)F)C(F)(F)C(F)(F)F)cc2OC(F)F)c1F (centres unmarked) [Compound 103]
pest or weed control at 0.2 µg/cm2, 0.2 µg/cm2 (Rhipicephalus sanguineus): 90% | pest or weed control at 1 µg/cm2, 1 µg/cm2 (Rhipicephalus sanguineus): 90% | pest or weed control at 0.2 µg/cm2, 0.2 µg/cm2 (Amblyomma americanum): 90% | pest or weed control at 1 µg/cm2, 1 µg/cm2 (Amblyomma americanum): 90% | pest or weed control at 0.2 µg/cm2, 0.2 µg/cm2 (Ixodes ricinus; dose 0.2 μg/cm^2, 48 h): 90% | pest or weed control at 5 µg/cm2, 5 µg/cm2 (Ixodes ricinus): 90% | pest or weed control at 100 ppm (Laodelphax striatellus): ≥ 70% | inhibition in vivo at 10 mg/kg (Dermacentor variabilis; [1]): 100% | inhibition in vivo at 10 mg/kg (Dermacentor variabilis; [2]): 100% | inhibition in vivo at 10 mg/kg (Dermacentor variabilis; [3]): 74% | inhibition in vivo at 10 mg/kg (Dermacentor variabilis; [4]): 43%
